Measurements from ChEMBL document CHEMBL1201862, “PubChem BioAssay data set” (2004).
Calls of active or inactive are those of the source.

How the values were obtained:
[1] = HEp-2 cell cytotoxicity, dose response, cytotoxicity control for RSV inhibitor project, HTS (AID 2410); type: functional; settings: human respiratory syncytial virus
Troponin, cardiac muscle = Troponin, cardiac muscle (Homo sapiens, UniProt P19429+P45379+P63316); assay: Fluorescence-based biochemical high throughput dose response assay for activators of the calcium sensitivity of cardiac Regulated Thin Filaments (RTF). [Related pubchem assays (depositor defined):AID493008, AID493018, AID504382, AID504383]; type: protein-complex assay
[2] = biological target: T1, Endoribonuclease toxin MazF (Escherichia coli K-12, UniProt P0AE70); assay: MazF toxin RNase activators, dose response, biochemical, fluorescence, single-stranded RNA substrate, uHTS hits (AID 588481); type: functional
T1 sequence (P0AE70 whole entry): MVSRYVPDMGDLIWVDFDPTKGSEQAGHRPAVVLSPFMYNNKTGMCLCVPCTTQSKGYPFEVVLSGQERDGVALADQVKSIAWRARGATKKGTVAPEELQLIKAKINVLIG

[3] = biological target: T1, Endoribonuclease toxin MazF; assay: fluorescent RNA oligo signal without MazF, dose response, counter-screen for MazEF activator project, biochemical, fluorescence, single-stranded RNase substrate (AID 588502); type: functional
CHO-K1 = assay: (§1) Counterscreen for antagonists of the orexin 1 receptor (OX1R; HCRTR1): Homogeneous time resolved fluorescence (HTRF)-based cell-based dose response assay to identify antagonists of the parental CHO-K1 cell line. [Related pubchem assays (depositor defined):AID434989, AID435008, AID463079, AID485270, AID492963, AID492964, AID492965, AID493232, AID504699, AID504701]; type: functional; settings: Cricetulus griseus
[4] = as §1, with “Fluorescence-based” for “Homogeneous time resolved fluorescence (HTRF)-based”, “cell-based high throughput” for “cell-based”, “CHO” for “CHO-K1”; type: functional
[5] = biological target: T2, Orexin/Hypocretin receptor type 1 (Homo sapiens, UniProt O43613); assay: Homogeneous Time Resolved Fluorescence (HTRF)-based cell-based high throughput dose response assay for antagonists of the orexin 1 receptor (OX1R; HCRTR1). [Related pubchem assays (depositor defined):AID434989, AID435008, AID463079, AID485270, AID492963, AID492964, AID492965, AID493232, AID504717, AID504718]; type: functional
T2 sequence (O43613 whole entry): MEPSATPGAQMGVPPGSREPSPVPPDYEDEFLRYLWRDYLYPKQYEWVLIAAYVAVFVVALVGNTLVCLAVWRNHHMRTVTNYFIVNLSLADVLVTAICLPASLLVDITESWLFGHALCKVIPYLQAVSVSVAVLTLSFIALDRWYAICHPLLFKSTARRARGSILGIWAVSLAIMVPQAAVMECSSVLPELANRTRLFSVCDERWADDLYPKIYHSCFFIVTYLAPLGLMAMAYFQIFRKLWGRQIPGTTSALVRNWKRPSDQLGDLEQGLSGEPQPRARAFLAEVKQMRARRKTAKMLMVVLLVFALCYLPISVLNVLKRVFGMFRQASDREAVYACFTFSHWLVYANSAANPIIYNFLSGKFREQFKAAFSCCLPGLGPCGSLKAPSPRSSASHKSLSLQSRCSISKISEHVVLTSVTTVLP

[6] = biological target: T2, Orexin/Hypocretin receptor type 1; assay: Fluorescence-based cell-based high throughput dose response assay for antagonists of the orexin 1 receptor (OX1R; HCRTR1). [Related pubchem assays (depositor defined):AID434989, AID435008, AID463079, AID485270, AID492963, AID492964, AID492965, AID493232, AID504717, AID504718]; type: functional
Orexin receptor type 2 [7] = biological target: T3, Orexin receptor type 2 (Homo sapiens, UniProt O43614); assay: Counterscreen assay for antagonists of the orexin 1 receptor (OX1R; HCRTR1): Fluorescence-based cell-based dose response assay for antagonists of the orexin 2 receptor (OX2R; HCRTR2), run by assay provider.; type: functional
T3 sequence (O43614 whole entry): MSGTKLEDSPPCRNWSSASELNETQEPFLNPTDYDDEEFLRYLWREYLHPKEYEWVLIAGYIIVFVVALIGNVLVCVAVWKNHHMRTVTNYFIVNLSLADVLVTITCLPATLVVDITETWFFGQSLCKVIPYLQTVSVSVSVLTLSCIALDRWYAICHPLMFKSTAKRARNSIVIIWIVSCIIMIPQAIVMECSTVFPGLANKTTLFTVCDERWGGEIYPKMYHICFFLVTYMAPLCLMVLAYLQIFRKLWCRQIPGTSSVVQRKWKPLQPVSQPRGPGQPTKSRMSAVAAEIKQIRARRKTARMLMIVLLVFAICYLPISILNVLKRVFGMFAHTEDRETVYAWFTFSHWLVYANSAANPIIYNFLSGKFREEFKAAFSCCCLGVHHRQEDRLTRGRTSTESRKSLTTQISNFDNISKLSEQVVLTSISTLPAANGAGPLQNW

Orexin receptor type 2 [8] = biological target: T3, Orexin receptor type 2; assay: Counterscreen assay for antagonists of the orexin 1 receptor (OX1R; HCRTR1): Homogeneous Time Resolved Fluorescence (HTRF)-based cell-based dose response assay for antagonists of the orexin 2 receptor (OX2R; HCRTR2), run by assay provider.; type: functional
[9] = biological target: Peroxisome proliferator-activated receptor gamma/Nuclear receptor coactivator 1 (Homo sapiens, UniProt P37231); assay: (§2) TR-FRET dose response biochemical High Throughput Screening assay for agonists of the steroid receptor coactivator 1 (SRC-1) recruitment by the peroxisome proliferator-activated receptor gamma (PPAR gamma): non-selective agonists. [Related pubchem assays (depositor defined):AID1300, AID1808, AID504735, AID631]; type: protein assay
[10] = biological target: Peroxisome proliferator-activated receptor gamma/Nuclear receptor coactivator 3 (Homo sapiens, UniProt P37231); assay: as §2, with “3 (SRC-3)” for “1 (SRC-1)”, “assays: 1301 (Confirmation screen.), 1048 (Primary screen.)]” for “assays (depositor defined):AID1300, AID1808, AID504735, AID631]”; type: functional
[11] = biological target: Peroxisome proliferator-activated receptor gamma/Nuclear receptor coactivator 2 (Homo sapiens, UniProt P37231); assay: TR-FRET dose response biochemical High Throughput Screening assay for agonists of the steroid receptor coactivator 2 (SRC-2) recruitment by the peroxisome proliferator-activated receptor gamma (PPAR gamma): non-selective agonists. [Related pubchem assays: 1297, 1032 ]; type: functional
[12] = biological target: Beta-2 adrenergic receptor (Homo sapiens, UniProt P07550); assay: beta2AR agonists driving receptor internalization, dose response, cell-based, FAP fluorogen, flow cytometry, cherry pick 1 (AID 588763); type: functional
[13] = Luminescence Cell-Based Dose Confirmation HTS to Identify Activators of 5'UTR Stem-Loop Driven Alpha-Synuclein mRNA Translation in H4 Neuroglioblastoma Cells. [Related pubchem assays: 1829 (Project Summary), 1814 (Primary HTS)]; type: functional
[14] = Luminescence Cell-Based Dose Response HTS to Identify Activators of Luciferase Translation or Activity in H4 […] Cells. [Related pubchem assays: 1829 (Project Summary), 1814 (Primary HTS)]; type: functional
H4 = assay: Luminescence Cell-Based Dose Response HTS to Identify Activators of 5'UTR Stem-Loop Driven Prion Protein mRNA Translation in H4 Neuroglioblastoma Cells. [Related pubchem assays: 1829 (Project Summary), 1814 (Primary HTS)]; type: functional; settings: Homo sapiens
Cysteine protease ATG4B = Cysteine protease ATG4B (Homo sapiens, UniProt Q9Y4P1); type: functional;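 further: Fluorescence-based dose-response confirmation assay measuring inhibition of ATG4B activity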
Phospholipase A2 = Phospholipase A2 (Homo sapiens, UniProt P04054); type: functional;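 further: confirmatory dose-response counterscreen on phospholipase A2, testing hits that came from an ultra-high-throughput screen for ATG4B inhibitors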
[15] = inhibitors of intracellular T. cruzi replication, confirmation, NIH3T3 host cells, beta-gal luminescence (AID 2044); type: functional, cell-based;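 further: intracellular parasites grown in NIH/3T3 mouse fibroblasts as host cells; luminescent beta-galactosidase reporter signal from transgenic T. cruzi replicating inside host cells; inhibitors lower the luminescence signal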
[16] = cytotoxicity toward NIH3T3 fibroblasts, dose response, counter-screen, cell-based, ATP luminescence, mouse fibroblasts (AID 2010); type: functional;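 further: cells exposed to compound for about 90 hours before reading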
[17] = THP-1 cell cytotoxicity, dose response, cytotoxicity control for non-replicating M. tuberculosis project (AID 489025); type: functional
[18] = HepG2 cell cytotoxicity, dose response, cytotoxicity control for non-replicating M. tuberculosis project (AID 489018); type: functional; settings: Mycobacterium tuberculosis
[19] = Vero E6 cell cytotoxicity, dose response, cytotoxicity control for non-replicating M. tuberculosis project, secondary assay (AID 492998); type: functional, VeroE6; settings: Vero C1008
cells = type: functional
[20] = biological target: Apoptotic protease-activating factor 1 (Homo sapiens, UniProt O14727); type: functional
[21] = biological target: Delta-type opioid receptor (Homo sapiens, UniProt P41143); assay: Counterscreen for agonists of heterodimerization of the mu 1 (OPRM1) and delta 1 (OPRD1) opioid receptors: Luminescence-based cell-based high throughput dose response assay to identify agonists of OPRD1 homodimerization. [Related pubchem assays (depositor defined):AID504326, AID504355, AID504692, AID504904, AID504905]; type: functional
Mu-type opioid receptor = Mu-type opioid receptor (Homo sapiens, UniProt P35372); assay: Counterscreen for agonists of heterodimerization of the mu 1 (OPRM1) and delta 1 (OPRD1) opioid receptors: Luminescence-based cell-based high throughput dose response assay to identify agonists of OPRM1 homodimerization.; type: functional;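 further: U2OS cells expressing OPRM1 and beta-arrestin as split beta-galactosidase partners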
[22] = biological target: 5-hydroxytryptamine receptor 5A (Homo sapiens, UniProt P47898); assay: Counterscreen for agonists of OPRM1-OPRD1 heterodimerization: luminescence-based cell-based high throughput dose response assay to identify agonists of 5-hydroxytryptamine (serotonin) 5A receptor (HTR5A). [Related pubchem assays (depositor defined):AID504326, AID504355, AID504692, AID504904, AID504905]; type: functional
Chain of 5-hydroxytryptamine receptor 5A (P47898 whole entry): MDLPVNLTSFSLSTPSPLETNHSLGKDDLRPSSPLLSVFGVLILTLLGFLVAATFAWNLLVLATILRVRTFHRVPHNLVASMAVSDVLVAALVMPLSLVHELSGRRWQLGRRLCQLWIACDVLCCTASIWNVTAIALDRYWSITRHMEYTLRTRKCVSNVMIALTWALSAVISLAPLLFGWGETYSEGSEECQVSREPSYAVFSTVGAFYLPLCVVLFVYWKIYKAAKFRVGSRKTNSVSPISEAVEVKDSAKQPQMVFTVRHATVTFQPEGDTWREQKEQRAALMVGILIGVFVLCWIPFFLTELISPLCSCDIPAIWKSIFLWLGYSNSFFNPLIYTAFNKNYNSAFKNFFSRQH

Chain of Peroxisome proliferator-activated receptor gamma/Nuclear receptor coactivator 3 (P37231 whole entry): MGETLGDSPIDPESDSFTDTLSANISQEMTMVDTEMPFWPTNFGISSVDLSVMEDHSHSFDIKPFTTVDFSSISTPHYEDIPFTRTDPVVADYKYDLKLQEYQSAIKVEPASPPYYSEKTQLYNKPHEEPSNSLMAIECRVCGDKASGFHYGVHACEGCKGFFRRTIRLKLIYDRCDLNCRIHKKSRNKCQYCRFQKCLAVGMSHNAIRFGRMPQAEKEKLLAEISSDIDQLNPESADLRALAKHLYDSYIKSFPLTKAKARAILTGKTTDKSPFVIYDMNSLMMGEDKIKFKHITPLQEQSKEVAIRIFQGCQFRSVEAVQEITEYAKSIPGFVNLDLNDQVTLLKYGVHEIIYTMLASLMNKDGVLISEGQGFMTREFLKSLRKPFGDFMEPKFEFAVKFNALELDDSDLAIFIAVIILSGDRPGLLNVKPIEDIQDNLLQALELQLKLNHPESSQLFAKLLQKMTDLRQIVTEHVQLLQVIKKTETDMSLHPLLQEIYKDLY
Chain of Peroxisome proliferator-activated receptor gamma/Nuclear receptor coactivator 3 (Q9Y6Q9 whole entry, further chain): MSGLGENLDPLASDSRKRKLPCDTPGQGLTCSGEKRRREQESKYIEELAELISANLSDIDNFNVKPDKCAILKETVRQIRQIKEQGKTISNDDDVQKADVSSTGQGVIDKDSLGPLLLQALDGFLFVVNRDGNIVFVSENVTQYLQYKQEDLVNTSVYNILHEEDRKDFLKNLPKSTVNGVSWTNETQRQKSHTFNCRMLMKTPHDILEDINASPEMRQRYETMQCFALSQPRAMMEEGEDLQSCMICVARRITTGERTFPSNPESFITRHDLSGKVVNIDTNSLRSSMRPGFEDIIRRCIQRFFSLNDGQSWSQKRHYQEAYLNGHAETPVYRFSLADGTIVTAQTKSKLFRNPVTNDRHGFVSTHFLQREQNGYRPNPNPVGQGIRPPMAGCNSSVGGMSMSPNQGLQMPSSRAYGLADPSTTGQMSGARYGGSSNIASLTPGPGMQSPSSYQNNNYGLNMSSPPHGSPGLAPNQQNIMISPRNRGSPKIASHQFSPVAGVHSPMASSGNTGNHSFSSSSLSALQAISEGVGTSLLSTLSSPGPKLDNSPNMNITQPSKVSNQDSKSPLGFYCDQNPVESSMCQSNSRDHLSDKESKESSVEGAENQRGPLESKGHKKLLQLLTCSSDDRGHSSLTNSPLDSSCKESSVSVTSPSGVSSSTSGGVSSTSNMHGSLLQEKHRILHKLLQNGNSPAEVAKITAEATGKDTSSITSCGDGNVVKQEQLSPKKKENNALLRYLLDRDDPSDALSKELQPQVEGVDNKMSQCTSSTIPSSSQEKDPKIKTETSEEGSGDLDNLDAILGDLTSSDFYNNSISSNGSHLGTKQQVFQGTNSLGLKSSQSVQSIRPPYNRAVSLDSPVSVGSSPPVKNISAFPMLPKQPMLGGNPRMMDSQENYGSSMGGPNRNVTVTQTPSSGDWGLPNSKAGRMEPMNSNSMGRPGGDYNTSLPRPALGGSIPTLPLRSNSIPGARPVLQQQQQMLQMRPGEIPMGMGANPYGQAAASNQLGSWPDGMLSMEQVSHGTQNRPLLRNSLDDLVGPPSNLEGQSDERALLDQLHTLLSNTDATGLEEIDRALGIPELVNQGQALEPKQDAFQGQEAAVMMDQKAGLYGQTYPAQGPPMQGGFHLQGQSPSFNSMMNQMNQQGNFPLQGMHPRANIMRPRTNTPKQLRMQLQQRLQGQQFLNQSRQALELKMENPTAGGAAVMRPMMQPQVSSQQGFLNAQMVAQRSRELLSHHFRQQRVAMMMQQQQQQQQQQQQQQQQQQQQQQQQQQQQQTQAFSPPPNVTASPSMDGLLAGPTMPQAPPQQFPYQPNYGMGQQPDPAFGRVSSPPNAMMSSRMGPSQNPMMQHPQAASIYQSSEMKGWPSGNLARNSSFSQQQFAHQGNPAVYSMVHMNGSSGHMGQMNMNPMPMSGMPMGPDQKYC
Chain of Peroxisome proliferator-activated receptor gamma/Nuclear receptor coactivator 2 (P37231 whole entry): as the sequence (P37231 whole entry) above
Chain of Peroxisome proliferator-activated receptor gamma/Nuclear receptor coactivator 2 (Q15596 whole entry, further chain): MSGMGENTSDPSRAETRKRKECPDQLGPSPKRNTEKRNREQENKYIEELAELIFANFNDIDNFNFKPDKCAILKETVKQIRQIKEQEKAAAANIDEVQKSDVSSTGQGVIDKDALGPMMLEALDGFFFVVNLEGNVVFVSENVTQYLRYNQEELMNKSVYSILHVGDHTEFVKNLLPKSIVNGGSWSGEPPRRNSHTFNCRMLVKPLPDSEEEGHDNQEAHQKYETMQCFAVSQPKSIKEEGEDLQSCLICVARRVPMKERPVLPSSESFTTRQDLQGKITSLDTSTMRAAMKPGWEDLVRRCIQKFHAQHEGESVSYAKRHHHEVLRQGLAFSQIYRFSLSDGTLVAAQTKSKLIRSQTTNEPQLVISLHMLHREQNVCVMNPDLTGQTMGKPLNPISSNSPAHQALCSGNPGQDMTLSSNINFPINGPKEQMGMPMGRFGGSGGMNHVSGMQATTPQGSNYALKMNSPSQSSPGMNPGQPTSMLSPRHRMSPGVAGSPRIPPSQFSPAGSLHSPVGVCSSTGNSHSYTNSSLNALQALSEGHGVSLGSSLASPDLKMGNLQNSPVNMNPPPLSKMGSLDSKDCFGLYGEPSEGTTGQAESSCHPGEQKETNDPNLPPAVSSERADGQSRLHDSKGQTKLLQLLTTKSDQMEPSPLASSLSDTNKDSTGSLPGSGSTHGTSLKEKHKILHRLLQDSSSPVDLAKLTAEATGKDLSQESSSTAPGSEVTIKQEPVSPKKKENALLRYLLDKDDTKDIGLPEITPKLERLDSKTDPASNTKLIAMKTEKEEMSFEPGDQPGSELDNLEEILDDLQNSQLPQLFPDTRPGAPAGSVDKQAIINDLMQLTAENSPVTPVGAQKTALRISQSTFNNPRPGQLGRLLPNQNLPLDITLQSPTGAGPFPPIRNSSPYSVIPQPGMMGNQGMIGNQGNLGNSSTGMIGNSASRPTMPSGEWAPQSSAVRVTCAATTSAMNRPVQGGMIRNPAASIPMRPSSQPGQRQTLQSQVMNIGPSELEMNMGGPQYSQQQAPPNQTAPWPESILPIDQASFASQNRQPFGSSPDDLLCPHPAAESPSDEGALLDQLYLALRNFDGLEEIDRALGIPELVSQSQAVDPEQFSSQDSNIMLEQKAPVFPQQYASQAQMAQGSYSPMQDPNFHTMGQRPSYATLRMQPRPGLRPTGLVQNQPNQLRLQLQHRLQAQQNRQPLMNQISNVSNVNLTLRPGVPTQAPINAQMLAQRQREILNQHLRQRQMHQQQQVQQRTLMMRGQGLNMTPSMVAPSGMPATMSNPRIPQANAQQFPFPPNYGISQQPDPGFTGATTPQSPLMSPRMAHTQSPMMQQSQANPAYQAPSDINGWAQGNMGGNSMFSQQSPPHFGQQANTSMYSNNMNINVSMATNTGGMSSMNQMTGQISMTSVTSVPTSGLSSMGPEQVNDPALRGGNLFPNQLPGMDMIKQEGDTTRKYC
Chain of Beta-2 adrenergic receptor (P07550 whole entry): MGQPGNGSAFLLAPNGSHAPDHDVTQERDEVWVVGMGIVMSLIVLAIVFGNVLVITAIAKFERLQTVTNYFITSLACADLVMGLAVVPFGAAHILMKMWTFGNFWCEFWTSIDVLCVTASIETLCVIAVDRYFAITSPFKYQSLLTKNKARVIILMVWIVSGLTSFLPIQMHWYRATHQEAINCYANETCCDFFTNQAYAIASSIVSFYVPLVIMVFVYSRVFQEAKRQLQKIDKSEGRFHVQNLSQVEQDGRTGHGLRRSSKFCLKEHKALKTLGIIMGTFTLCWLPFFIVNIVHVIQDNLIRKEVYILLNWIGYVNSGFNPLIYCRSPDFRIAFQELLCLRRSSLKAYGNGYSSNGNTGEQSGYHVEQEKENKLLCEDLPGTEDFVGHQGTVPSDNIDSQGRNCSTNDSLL
Chain of Mu-type opioid receptor (P35372 whole entry): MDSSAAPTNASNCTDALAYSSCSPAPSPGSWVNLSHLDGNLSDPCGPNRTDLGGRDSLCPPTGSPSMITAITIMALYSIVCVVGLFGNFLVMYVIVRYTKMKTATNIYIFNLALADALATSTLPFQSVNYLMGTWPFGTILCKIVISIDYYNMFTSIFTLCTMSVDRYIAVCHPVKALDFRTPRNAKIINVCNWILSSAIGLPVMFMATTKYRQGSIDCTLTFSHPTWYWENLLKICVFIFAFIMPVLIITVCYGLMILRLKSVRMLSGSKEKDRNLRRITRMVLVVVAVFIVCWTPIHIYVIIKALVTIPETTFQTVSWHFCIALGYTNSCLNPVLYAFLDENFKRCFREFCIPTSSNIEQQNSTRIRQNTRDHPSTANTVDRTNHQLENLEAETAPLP

O=[N+]([O-])c1ccc(N2CCCC2)c2ncccc12
CC50 [1]: > 50 µM (active) | EC50 (Troponin, cardiac muscle): 12.1 µM (inactive) | EC50 [2]: > 99 µM (inactive) | EC50 [3]: > 99 µM (inactive)

Cc1cccc(-c2cc3nc(-c4ccccc4)cc(N4CCC5(CC4)OCCO5)n3n2)c1
IC50 (CHO-K1): > 66.2 µM (inactive) | IC50 [4]: > 49.8 µM (inactive) | IC50 [5]: 5.38 µM (active) | IC50 [6]: 12.6 µM (inactive) | IC50 (Orexin receptor type 2 [7]): > 88.8 µM (inactive) | IC50 (Orexin receptor type 2 [8]): > 50 µM (inactive)

Cc1nc(-c2ccccc2)sc1-c1nc(-c2ccccc2)ncc1S(=O)(=O)c1ccccc1
EC50 [9]: > 26.5 µM (inactive) | EC50 [10]: 61.8 µM (not active) | EC50 [11]: 38.2 µM (not active)

CCn1c(=S)[nH]c2c(c1=O)C(C)(C)Cc1ccccc1-2
EC50 [9]: > 79.4 µM (inactive) | EC50 [10]: > 79.4 µM (not active) | EC50 [11]: > 79.4 µM (not active)

CCOc1ccccc1C(=O)NCC(=O)OCc1csc(CC(=O)Nc2ccc(C)cc2)n1
EC50 [12]: 228 nM (active)

Cc1nn(Cc2c(F)c(F)c(F)c(F)c2F)c(C)c1NC(=O)c1ccc(COc2cc(Cl)ccc2Cl)cc1
EC50 [13]: > 120 µM (not active) | EC50 [14]: 7.73 µM (active) | EC50 (H4): 3.37 µM (active) | IC50 (Cysteine protease ATG4B): 532 nM (active) | IC50 (Phospholipase A2): 270 nM (active)

CN1CCN(c2ccc(NC(=O)c3ccc(-c4ccc(Br)cc4)o3)cc2)CC1
EC50 [15]: 1.26 µM (active) | EC50 [16]: > 60 µM (not active) | CC50 [17]: 16.7 µM (active) | CC50 [18]: > 20 µM (active) | CC50 [19]: 13 µM (active) | IC50 (cells): 2.59 µM (active) | IC50 [20]: 37 µM (active) | EC50 [21]: > 10.3 µM (inactive) | EC50 (Mu-type opioid receptor): > 3.42 µM (active) | EC50 [22]: > 92.5 µM (inactive)
